According to patent publication US20220281831A1, “FUSED-GLUTARIMIDE CRBN LIGANDS AND USES THEREOF” (Kymera Therapeutics, Inc., priority 2019, published 2022):
pIC50: −log10 of the molar value.

Experiments:
CRBN-DDB1 = CRBN-DDB1 (Homo sapiens, UniProt Q96SW2); test: Fluorescence Polarization (FP) CRBN binding assay, probe TM-493 (FAM-BB-100); details: CRBN-DDB1, TM-493 probe, 60 min room temperature
Procedure: Fluorescence Polarization (FP) Assay
Materials: PerkinElmer EnVision 2104 Multilabel Reader, PerkinElmer FITC FP dual emission Label 2100-8060, Corning 384-well microplate #4514, V-CMR-TM-493 (FAM-BB-100), and CRBN-DDB1-180605.
Methods: Dilution buffer (50 mM HEPES-Na pH 7.5, 100 mM NaCl, 2 mM DTT, and 0.005% Tween-20) and compound DMSO dilutions were prepared. 4× compound working solutions were made with 8% DMSO (4×) and 13.8 μL/well of dilution buffer was placed in a new 96-well plate and 1.2 μL/well of above compound DMSO dilutions were added to the wells. 40 nM (4×) TM-493 in dilution buffer was prepared from a 10 μM DMSO stock and 15 μL per well of the TM-493 working solution was transferred into the compound working solution. 160 nM (2×) CRBN-DDB1 working solution was prepared with Dilution Buffer and 10 μL/well were added into a 384-well plate. 10 μL per well of the TM-493/compound mixture were transferred into the 384-well plate. The “positive control” was sample without protein and compound in 2% DMSO. After incubation at room temperature for 60 min, data was collected and read on data on an EnVision with the following setting: Excitation Light (%): 100; Measurement Height: 9.4; G-Factor: 1; Detector Gain 1: 200; Detector Gain 2: 200; Flash Number: 100. Data was processed using GraphPad Prism 7.0
The compound numbers correspond to the compound numbers in Table 1.

[1] = molecular target: His-tagged CRBN-DDB1 complex (Homo sapiens, UniProt Q96SW2); test: Time-Resolved Fluorescence Resonance Energy Transfer (TR-FRET / HTRF) CRBN binding assay, displacement of Cy5-labeled thalidomide; details: His-CRBN-DDB1, Cy5-thalidomide 8 nM, 1 hour room temperature
Chain of His-tagged CRBN-DDB1 complex (Q96SW2 whole entry): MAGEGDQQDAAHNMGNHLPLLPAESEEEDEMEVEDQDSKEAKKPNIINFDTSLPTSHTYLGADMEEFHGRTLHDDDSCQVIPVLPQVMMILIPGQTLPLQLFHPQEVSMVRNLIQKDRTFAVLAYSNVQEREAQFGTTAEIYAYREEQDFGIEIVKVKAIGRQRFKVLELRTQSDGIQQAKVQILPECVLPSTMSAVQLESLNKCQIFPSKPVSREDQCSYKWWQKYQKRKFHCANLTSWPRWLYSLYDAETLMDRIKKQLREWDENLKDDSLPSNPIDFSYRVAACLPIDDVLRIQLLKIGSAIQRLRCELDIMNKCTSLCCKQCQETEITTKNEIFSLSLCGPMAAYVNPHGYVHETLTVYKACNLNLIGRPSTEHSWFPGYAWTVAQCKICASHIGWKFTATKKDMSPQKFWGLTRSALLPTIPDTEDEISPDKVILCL
Chain of His-tagged CRBN-DDB1 complex (Q16531 whole entry partner): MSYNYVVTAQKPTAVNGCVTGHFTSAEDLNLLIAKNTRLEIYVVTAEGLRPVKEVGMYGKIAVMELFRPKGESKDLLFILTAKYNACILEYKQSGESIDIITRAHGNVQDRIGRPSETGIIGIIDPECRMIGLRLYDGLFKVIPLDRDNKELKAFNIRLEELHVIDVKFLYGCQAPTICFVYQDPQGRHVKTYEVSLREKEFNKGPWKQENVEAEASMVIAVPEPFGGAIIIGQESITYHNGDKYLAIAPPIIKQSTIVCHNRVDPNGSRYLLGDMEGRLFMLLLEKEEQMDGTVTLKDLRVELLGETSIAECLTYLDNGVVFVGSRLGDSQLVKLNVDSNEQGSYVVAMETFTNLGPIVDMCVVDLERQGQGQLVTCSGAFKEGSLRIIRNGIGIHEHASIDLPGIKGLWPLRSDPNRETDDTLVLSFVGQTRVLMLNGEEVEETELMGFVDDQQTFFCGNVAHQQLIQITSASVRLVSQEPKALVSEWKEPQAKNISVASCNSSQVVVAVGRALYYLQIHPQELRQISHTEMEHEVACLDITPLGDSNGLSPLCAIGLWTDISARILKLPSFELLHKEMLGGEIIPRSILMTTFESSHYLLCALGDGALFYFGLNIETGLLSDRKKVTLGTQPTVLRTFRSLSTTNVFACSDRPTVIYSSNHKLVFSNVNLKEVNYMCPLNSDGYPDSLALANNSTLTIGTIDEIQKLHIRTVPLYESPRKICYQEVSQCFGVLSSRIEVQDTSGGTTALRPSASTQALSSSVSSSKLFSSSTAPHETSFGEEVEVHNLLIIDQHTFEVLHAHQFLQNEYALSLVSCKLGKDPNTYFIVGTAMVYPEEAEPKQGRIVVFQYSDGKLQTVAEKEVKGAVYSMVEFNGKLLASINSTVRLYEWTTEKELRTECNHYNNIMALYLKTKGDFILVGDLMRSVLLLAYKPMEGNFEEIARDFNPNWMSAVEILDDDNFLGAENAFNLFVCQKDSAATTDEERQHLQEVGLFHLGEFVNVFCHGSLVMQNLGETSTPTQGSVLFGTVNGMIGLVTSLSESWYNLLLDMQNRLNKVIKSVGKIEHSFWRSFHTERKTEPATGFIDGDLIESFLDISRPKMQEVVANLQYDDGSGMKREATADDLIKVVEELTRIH

Chain of CRBN-DDB1 (Q96SW2 whole entry): as the sequence (Q96SW2 whole entry) above
Chain of CRBN-DDB1 (Q16531 whole entry partner): as the sequence (Q16531 whole entry partner) above

Compound	pIC50 (CRBN-DDB1)	pIC50 [1]
O=C1Cc2cccc(C(=O)N3CCc4ccccc43)c2C(=O)N1 [Compound I-1, 8-(2,3-Dihydroindole-1-carbonyl)-2,4-dihydroisoquinoline-1,3-dione]	4.52 to 5.00	< 4.00
NC(=O)c1ccccc1-c1cccc2c1C(=O)NC(=O)C2 [Compound I-2, 2-(1,3-Dioxo-2,4-dihydroisoquinolin-8-yl)benzamide]	4.00 to 4.52	< 4.00
O=C1Cc2cccc(C(=O)N3CCOc4ccccc43)c2C(=O)N1 [Compound I-3, 8-(2,3-Dihydro-1,4-benzoxazine-4-carbonyl)-2,4-dihydroisoquinoline-1,3-dione]	4.00 to 4.52	< 4.00
Cc1ccccc1-c1ccc2c(c1)C(=O)NC(=O)C2 [Compound I-4, 7-(2-Methylphenyl)-2,4-dihydroisoquinoline-1,3-dione]	< 4.00	4.00 to 4.52
O=C1Cc2ccccc2C(=O)N1 [Compound I-5, 2,4-Dihydroisoquinoline-1,3-dione]	4.00 to 4.52	< 4.00
Cc1ncoc1-c1ccc2c(c1)C(=O)NC(=O)C2 [Compound I-6, 7-(4-Methyl-1,3-oxazol-5-yl)-2,4-dihydroisoquinoline-1,3-dione]	< 4.00	< 4.00
O=C1Cc2ccc(Br)cc2C(=O)N1 [Compound I-7, 7-Bromo-2,4-dihydroisoquinoline-1,3-dione]	< 4.00	4.00 to 4.52
O=C1Cc2cccc(Br)c2C(=O)N1 [Compound I-8, 8-Bromo-2,4-dihydroisoquinoline-1,3-dione]	< 4.00	4.52 to 5.00
Nc1ccc2c(c1)C(=O)NC(=O)C2 [Compound I-12]	4.52 to 5.00	> 5.00
Nc1ccccc1-c1ccc2c(c1)C(=O)NC(=O)C2 [Compound I-17, 7-(2-aminophenyl)-2,4-dihydroisoquinoline-1,3-dione]	4.00 to 4.52	< 4.00
COc1ccccc1-c1ccc2c(c1)C(=O)NC(=O)C2 [Compound I-18, 7-(2-Methoxyphenyl)-2,4-dihydroisoquinoline-1,3-dione]	4.00 to 4.52	< 4.00
O=C1Cc2ccc(O)cc2C(=O)N1 [Compound I-19, 7-hydroxy-2,4-dihydroisoquinoline-1,3-dione]	< 4.00	> 5.00
NC(=O)c1ccc2c(c1)C(=O)NC(=O)C2 [Compound I-20, 1,3-dioxo-2,4-dihydroisoquinoline-7-carboxamide]	< 4.00	4.00 to 4.52
CC(=O)Nc1ccc2c(c1)C(=O)NC(=O)C2 [Compound I-21]	4.52 to 5.00	4.00 to 4.52
Nc1cccc2c1C(=O)NC(=O)C2 [Compound I-22, 8-Amino-2,4-dihydroisoquinoline-1,3-dione]	4.52 to 5.00	< 4.00
O=C1Cc2cccc(O)c2C(=O)N1 [Compound I-23]	4.00 to 4.52	4.52 to 5.00
Cc1ccccc1-c1cccc2c1C(=O)NC(=O)C2 [Compound I-24]	4.52 to 5.00	
Cc1ncoc1-c1cccc2c1C(=O)NC(=O)C2 [Compound I-25]	< 4.00	
O=C1Cc2cccc(Oc3ccccc3)c2C(=O)N1 [Compound I-26, 8-phenoxy-2,4-dihydroisoquinoline-1,3-dione]	> 5.00	> 5.00
O=C1Cc2cccc(Nc3ccccc3)c2C(=O)N1 [Compound I-27, 8-(Phenylamino)-2,4-dihydroisoquinoline-1,3-dione]	4.00 to 4.52	4.00 to 4.52
O=C1NC(=O)c2c(Br)cccc21 [Compound I-29, 4-bromo-2H-isoindole-1,3-dione]	< 4.00	< 4.00

Compound	pIC50 (CRBN-DDB1)	pIC50 [1]
Cc1ccccc1-c1cccc2c1C(=O)NC2=O [Compound I-31, 4-(2-methylphenyl)-2H-isoindole-1,3-dione]	< 4.00	4.00 to 4.52
Cc1ncoc1-c1cccc2c1C(=O)NC2=O [Compound I-33, 4-(4-methyl-1,3-oxazol-5-yl)-2H-isoindole-1,3-dione]	< 4.00	< 4.00
CC(=O)Nc1cccc2c1C(=O)NC(=O)C2 [Compound I-42]	4.00 to 4.52	4.52 to 5.00
O=C1NC(=O)C(F)(F)c2cccc(Br)c21 [Compound I-49]	< 4.00	< 4.00
O=C1NC(=O)C(F)(F)c2cccc(C(=O)N3CCc4ccccc43)c21 [Compound I-50]	< 4.00	< 4.00
N#Cc1ccccc1-c1cccc2c1C(=O)NC(=O)C2 [Compound I-52, 2-(1,3-Dioxo-2,4-dihydroisoquinolin-8-yl)benzonitrile]	4.00 to 4.52	4.00 to 4.52
O=c1[nH]c(=O)c2cc(Br)ccc2o1 [Compound I-53, 6-Bromo-3H-1,3-benzoxazine-2,4-dione]	< 4.00	< 4.00
O=c1[nH]c(=O)c2c(Br)cccc2o1 [Compound I-54, 5-Bromo-3H-1,3-benzoxazine-2,4-dione]	< 4.00	< 4.00
O=C1NC(=O)C2(CC2)c2cccc(Br)c21 [Compound I-58, 8′-Bromo-2′H-spiro[cyclopropane-1,4′-isoquinoline]-1′,3′-dione]	< 4.00	< 4.00
O=C1Cc2cccc(NC(=O)c3ccccc3)c2C(=O)N1 [Compound I-62]	4.00 to 4.52	> 5.00
NCc1cccc2c1C(=O)NC(=O)C2 [Compound I-68]	4.52 to 5.00	4.52 to 5.00
Nc1cccc2c1C(=O)NC(=O)C2(F)F [Compound I-71, 8-Amino-4,4-difluoro-2H-isoquinoline-1,3-dione]	> 5.00	> 5.00
O=C1Cc2c(F)cccc2C(=O)N1 [Compound I-72, 5-Fluoro-2,4-dihydroisoquinoline-1,3-dione]	< 4.00	4.52 to 5.00
O=C1CC2(C(=O)N1)C(=O)Nc1ccccc12 (centres unmarked) [Compound I-176]	< 4.00	
O=C1Cc2cccc(Oc3ccccc3Br)c2C(=O)N1 [Compound I-205]	> 5.00	
O=C1Cc2cccc(Oc3ccc(Br)cc3)c2C(=O)N1 [Compound I-206, 8-(4-Bromophenoxy)-2,4-dihydroisoquinoline-1,3-dione]	> 5.00	
O=C1Cc2cccc(Oc3cccc(Br)c3)c2C(=O)N1 [Compound I-207]	> 5.00	
O=C1Cc2cccc(C(=O)N(Cc3ccccc3)Cc3ccccc3)c2C(=O)N1 [Compound I-208]	4.52 to 5.00	
O=C1Cc2cccc(Oc3ccccc3[N+](=O)[O-])c2C(=O)N1 [Compound I-261]	4.52 to 5.00	
O=C1Cc2cccc(Oc3ccccc3)c2CC(=O)N1 [Compound I-262]	< 4.00	
Nc1ccccc1Oc1cccc2c1C(=O)NC(=O)C2 [Compound I-263]	4.00 to 4.52	

Compound	pIC50 (CRBN-DDB1)	pIC50 [1]
O=C1Cc2cccc(Oc3cccnc3)c2C(=O)N1 [Compound I-271]	4.52 to 5.00	
Cc1ncoc1C(=O)N1CCC2(CC1)CC(=O)NC(=O)C2 [Compound I-358]		< 4.00
O=C1CC2(CCN(C(=O)c3cnccn3)CC2)CC(=O)N1 [Compound I-359]		< 4.00
O=C1CC2(CCN(C(=O)c3ccco3)CC2)CC(=O)N1 [Compound I-360]		< 4.00
O=C1CC2(CCN(C(=O)c3ccc4ccoc4c3)CC2)CC(=O)N1 [Compound I-361]		< 4.00
O=C1CC2(CCN(C(=O)C3CC3)CC2)CC(=O)N1 [Compound I-362]		< 4.00
O=C1CC2(CCN(Cc3ccncc3)CC2)CC(=O)N1 [Compound I-363]		< 4.00
O=C1CC2(CCN(C(=O)c3cnon3)CC2)CC(=O)N1 [Compound I-364]		< 4.00
Cc1cccc(C(=O)N2CCC3(CC2)CC(=O)NC(=O)C3)c1 [Compound I-365]		< 4.00
O=C1CC2(CCN(C(=O)c3cncnc3)CC2)CC(=O)N1 [Compound I-366]		< 4.00
O=C1CC2(CCN(C(=O)c3cccc(C(F)(F)F)n3)CC2)CC(=O)N1 [Compound I-367]		< 4.00
O=C1CC2(CCN(C(=O)c3ccc4ccccc4c3)CC2)CC(=O)N1 [Compound I-368]		< 4.00
O=C1CC2(CCN(C(=O)c3ccc(O)cc3)CC2)CC(=O)N1 [Compound I-369]		< 4.00
O=C1CC2(CCN(C(=O)c3n[nH]c4ccccc34)CC2)CC(=O)N1 [Compound I-371]		< 4.00
O=C1CC2(CCNCC2)CC(=O)N1 [Compound I-372]		< 4.00
O=C1CC2(CCN(C(=O)c3ccnc(Cl)c3)CC2)CC(=O)N1 [Compound I-373]		< 4.00
O=C1CC2(CCN(Cc3ccccc3)CC2)CC(=O)N1 [Compound I-374]		< 4.00
O=C1NC(=O)[C@@H]2CN(C(=O)c3coc(COc4ccc5c(c4)OCO5)n3)C[C@H]12 [Compound I-375]		4.00 to 4.52
Cc1nn(C)c2nc(N3CCC4(CC3)CC(=O)NC(=O)C4)sc12 [Compound I-376]		4.00 to 4.52
O=C1CC2(CCc3cc(Br)ccc32)C(=O)N1 (centres unmarked) [Compound I-377]		4.00 to 4.52
O=C1NC(=O)c2cc(NC(=O)N3CC=C(c4ccc(O)cc4)CC3)ccc21 [Compound I-378]		4.00 to 4.52
